The values that follow come from article PMC5724689, “Increased Conformational Flexibility of a Macrocycle–Receptor Complex Contributes to Reduced Dissociation Rates” (Chemistry (Weinheim an Der Bergstrasse, Germany), 2017).

Assay [1] has as its target T1, 14-3-3ζ (14‐3‐3 isoform ζ) (Homo sapiens, UniProt P63104).
T1 construct: 14-3-3ζ (aa 1-245) with remaining His-Tag; made in house
T1 sequence (P63104 1-245): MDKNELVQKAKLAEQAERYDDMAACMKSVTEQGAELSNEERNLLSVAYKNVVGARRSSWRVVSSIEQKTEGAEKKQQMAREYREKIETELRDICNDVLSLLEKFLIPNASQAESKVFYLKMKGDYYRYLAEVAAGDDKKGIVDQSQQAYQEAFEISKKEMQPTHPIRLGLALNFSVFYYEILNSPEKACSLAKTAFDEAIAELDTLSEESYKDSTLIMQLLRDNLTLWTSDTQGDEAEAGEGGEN
As to the kind of experiment: biochemical. Particulars: for koff: 19F NMR line shape analysis, slow exchange, 50 mM HEPES, 100 mM NaCl, 2 mM MgCl2, 1% DMSO, 10% D2O, pH 7.4, room temperature, error from fitting procedure (Equation S1), read-out: dissociation rate koff (NMR); for association rate kon = koff × Kd^-1 (Figure 2b) / kon: calculated from koff (19F NMR) and ITC-derived Kd; for kon: read-out: association rate kon = koff × Kd^-1. The assay is classed as binding.

Assay [2] addresses T1, 14-3-3ζ (14‐3‐3 isoform ζ). As to the kind of experiment: biochemical. The assay is classed as binding. Particulars: ITC, T = 303.15 K, pH 7.4; mean value of 3 runs.

In general, koff refers to the rate constant with which the complex falls apart. A word on the kon: it is the second-order rate constant of association. In general, Kd refers to the concentration at which binding is half-saturated. For the compound `CC(C)C[C@H](NC(=O)[C@H](CC(=O)O)NC(=O)[C@H](CC(C)C)NC(=O)[C@]1(C)CCCCCCCCCCCC[C@](C)(NC(=O)CNC(=O)[C@H](CCC(N)=O)NC(=O)CNC(=O)C(F)(F)F)C(=O)N[C@@H](CC(C)C)C(=O)N[C@@H](CC(=O)O)C(=O)N1)C(=O)N[C@@H](C)C(=O)N[C@@H](CO)C(N)=O` [MC22], in assay [1], the dissociation rate constant (koff) came to 0.45 s⁻¹, the “association rate kon = koff × Kd^-1 (Figure 2b)” value is recorded as 4.12 ±0.39 s^-1M^-1 10^6 and the kon was 4.12e+06 M⁻¹ s⁻¹. Further, the Kd in assay [2] was found to be 111 nM.
For `CC(C)C[C@H](NC(=O)[C@H](CC(=O)O)NC(=O)[C@H](CC(C)C)NC(=O)[C@]1(C)CCCCCCCC[C@@](C)(NC(=O)CNC(=O)[C@H](CCC(N)=O)NC(=O)CNC(=O)C(F)(F)F)C(=O)N[C@@H](CC(C)C)C(=O)N[C@@H](CC(=O)O)C(=O)N1)C(=O)N[C@@H](C)C(=O)N[C@@H](CO)C(N)=O` [MC18] the same measures were 1.58 s⁻¹, 4.38 ±0.47 s^-1M^-1 10^6, 4.38e+06 M⁻¹ s⁻¹ and 362 nM.
